Laboratory results reported in patent US11767286B2, “Phenylpropionate compound, preparation method for same, and applications thereof” (SUZHOU PHARMAVAN CO., LTD, priority 2017, dated 2023).

Experiments:
IL-1β = test: Inflammatory factor IL-1β in blood and brain tissues of rats with acute cerebral ischemia-reperfusion; type: in vivo, SD rats; conditions: 4 mg/kg iv 2 h after reperfusion; 4 h after administration; n=5
Procedure: (§1) Trial method: Effects on inflammatory factors and blood viscosity of rats with acute cerebral ischemia-reperfusion: 70 Male SD rats underwent an MACO surgery by a suture method, and after the surgery, alive rats were randomly grouped (into 7 groups, the number of successful animals in each group was guaranteed to be 6 to 8). Blood perfusion was recovered 2 h after MCAO, and corresponding trial medicaments were intravenously injected 2 h after blood reperfusion. 4 hours after the administration, blood was collected and the rats were sacrificed to take out brain tissues. The brain tissues and part of the blood were centrifuged to collect serum which was detected for inflammatory factors, and part of the blood was detected for blood viscosity by using a blood viscometer. Detected indicators: cerebral infarction area; inflammatory factors IL-1β and TNF-α; and blood viscosity.
Table 3 lists results of effects of phenylpropionate compounds (4 mg/kg) on inflammatory factors in blood and brain tissues of rats (n=5).

SD rats = test: Acute toxicity, single-dose intravenous injection in SD rats; type: in vivo; conditions: for tolerance: single-dose intravenous injection (5, 10, 20 mg/kg); for toxic side effects: single-dose intravenous injection up to 20 mg/kg, observed to day 8
Description: In this example, Compound A and Compound C were studied for acute toxicity by a method described below.
Trial method: 30 SD rats, half male and half female, were used. The average weight was 160-200 g for female rats and 180-220 g for male rats when grouped. An individual weight should be within ±20% of the average weight. Before trial, animals were accommodated environment for at least 5 days, and healthy rats (female rats should be not pregnant) were selected as trial animals. Matter inspected during the accommodation period mainly was: whether the rats were consistent with quality indicators required in the order; inspection of general condition; and whether the weight was within the weight range required by the trial. Unqualified abnormal animals were excluded from the trial. A single dosage was injected through tail veins of rats at low, medium, or high dose. The doses were adjusted to be 5 mg/kg, 10 mg/kg, and 20 mg/kg, respectively according to blank preparation pre-trials. A control group was set in which a same volume of vehicle was intravenously injected.
The rats were observed about 0-2 h and 4-6 h after each administration. If a toxicity symptom occurs, the animal may be observed more times. (2) Gross anatomical observation: On the 8th day of the trial, all surviving rats in each group were dissected and observed, and administration sites and abnormal organs and tissues which were identified through gross anatomical observation to be potentially related to trial samples were photographed and recorded. (3) Disposal of dying animals: Status of rats and observation time were recorded, and their weights were measured. (4) Disposal of dead animals: The time of death or when a rat was found dead were recorded. The rat was measured for weight before quickly dissected for gross observation and speculated for cause of death.

[1] = test system: rats with acute cerebral ischemia-reperfusion; test: Blood viscosity of rats with acute cerebral ischemia-reperfusion (blood viscometer); type: in vivo, SD rats; set-up: unit not given here; conditions: 4 mg/kg iv 2 h after reperfusion; blood 4 h after administration; n=5
Procedure: as §1
Table 2 lists results of effects of phenylpropionate compounds (4 mg/kg) on blood viscosity of rats (n=5).

[2] = test system: SD rat model of focal ischemia-reperfusion; test: Dose-effect relationship in SD rat model of focal ischemia-reperfusion (MCAO); type: in vivo, SD rats; conditions: given 2 h after reperfusion, mean ± standard error; for Score of Symptoms of Neurological Deficits: 48 h, modified Bederson 5-point scale; for Infarction area: evaluated after 48 h
Procedure: In this example, phenylpropionate compounds were studied for dose-effect relationship, with D-bornyl ferulate (administrated at 4.0 mg/kg) and D-tanshinol borneol ester (administrated at 4.0 mg/kg) as positive control drugs. Structures of D-bornyl ferulate (Patent Application No.: 201510243181.5) and D-tanshinol borneol ester compounds are as follows:
Trial method: A cerebral ischemia reperfusion model of middle cerebral artery occlusion (MCAO) was prepared by an internal carotid artery suture method. An animal was anesthetized with 10% chloral hydrate (3.6 mL/kg) and then fixed on an operating table in a supine position. Its skin was disinfected, and a midline incision was made on the neck. The right common carotid artery, external carotid artery, and internal carotid artery were separated, the vagus nerve was gently striped off, and the external carotid artery was ligated and cut. The common carotid artery was clamped at the proximal end. […] The nylon thread was advanced through the bifurcation of the common carotid artery into the internal carotid artery, and then was slowly inserted until there was slight resistance (about 20 mm from the bifurcation) to block all the blood supply to the middle cerebral artery. 2 h after cerebral ischemia, the nylon thread was gently pulled out to restore blood supply for reperfusion, and the neck skin was sutured and disinfected. The animal was put back in a cage and raised. During the modeling operation, animals with abnormal conditions due to anesthesia, surgery, etc. were excluded, and successfully modeled animals were randomly grouped. Schemes were set according to different trial doses, and drug treatment was given 2 h after cerebral ischemia-reperfusion. Death conditions were recorded every day after the surgery, and indicators were evaluated after 48 h. In the whole trial process, general conditions were observed, mainly including: death, coma, breathing, urine and feces traits, hair colors, mental status, vomiting and vomitus, bleeding, convulsion, spasm, etc. Abnormal animals due to unexpected factors were excluded. Finally, unblinding was conducted by a person who made blind trials.
Evaluated indicator: (1) Evaluation of symptoms of neurological deficits: The symptoms of neurological deficits were evaluated by using a modified Bederson 5-point scale. A single-blind method was used for evaluating the symptoms of neurological deficits in rats with brain trauma. That is, a trial designer marked animals in accordance with groups, and an experimenter who scored the symptoms of neurological deficits had no knowledge of how the animals were grouped. After scoring was completed, the scorer submitted scoring results for various marks to the designer, and the designer performed unblinding to obtain scores of animals in each trial group. (2) Measurement of cerebral infarction area: A method reported in the literature was used. An animal was anesthetized with 10% chloral hydrate and decapitated to collect brain. The olfactory bulb, cerebellum and lower brain stem were removed. Blood stains on the surface of the brain were rinsed with normal saline, the residual water stains on the surface were absorbed, and the brain was placed at −80° C. for 7 min. After the brain was taken out, a coronal section was immediately made at downwards and vertical to the sight intersection plane, and brain slices were made every 2 mm backwards. Brain slices were placed in a TTC (20 g/L) dye solution prepared with 0.9% normal saline, and incubated at 37° C. for 90 min. Normal brain tissues were stained deep red, and ischemic brain tissues were pale-white. After rinsed with normal saline, the brain sections were quickly arranged in order from front to back, the residual water stains on the surface were absorbed to dryness, and pictures were taken. Image analysis software was used for statistics on the pictures. […]

COc1cc(CCC(=O)O[C@H]2C[C@H]3CC[C@]2(C)C3(C)C)cc(OC)c1O [Compound C]
IL-1β (IL-1β): 59.3 ± 8.7 ng/L
tolerance (SD rats): 20 mg/kg
toxic side effects (SD rats): no obvious toxic side effects
Blood viscosity, High Shear [1]: 2.70 ± 0.982
Blood viscosity, Low Shear [1]: 13.9 ± 1.014
Score of Symptoms of Neurological Deficits ([2]; 2.0 mg/kg): 2.45 ± 0.13
Infarction area ([2]; 2.0 mg/kg): 22.24 ± 2.84 %
Score of Symptoms of Neurological Deficits ([2]; 4.0 mg/kg): 2.18 ± 0.23
Infarction area ([2]; 4.0 mg/kg): 21.04 ± 2.14 %
Score of Symptoms of Neurological Deficits ([2]; 8.0 mg/kg): 1.98 ± 0.14
Infarction area ([2]; 8.0 mg/kg): 19.32 ± 3.53 %

COc1cc(CCC(=O)O[C@H]2C[C@H]3CC[C@]2(C)C3(C)C)cc(F)c1O [Compound A]
IL-1β (IL-1β): 53.8 ± 6.4 ng/L
tolerance (SD rats): 20 mg/kg
toxic side effects (SD rats): no obvious toxic side effects
Blood viscosity, High Shear [1]: 2.56 ± 0.057
Blood viscosity, Low Shear [1]: 13.2 ± 0.535
Score of Symptoms of Neurological Deficits ([2]; 2.0 mg/kg): 2.05 ± 0.20
Infarction area ([2]; 2.0 mg/kg): 24.73 ± 2.63 %
Score of Symptoms of Neurological Deficits ([2]; 4.0 mg/kg): 1.94 ± 0.19
Infarction area ([2]; 4.0 mg/kg): 20.25 ± 2.53 %
Score of Symptoms of Neurological Deficits ([2]; 8.0 mg/kg): 1.75 ± 0.21
Infarction area ([2]; 8.0 mg/kg): 18.38 ± 2.74 %
